Reference: patent US20080051284A1, “Fungicidal Mixtures for Controlling Rice Pathogens” (BASF AKTIENGESELLSCHAFT, priority 2003, published 2008)

Tested on: Corticium sasakii
Experiment: Activity against sheath blight on rice caused by Corticium sasakii (protective spray, rice plants cultivar Tai-Nong 67)
Format: in vivo
Conditions: individual active compound, 11 days after infection
Method: The active compounds, separately or jointly, were prepared as a stock solution with 0.25% by weight of active compound in acetone or DMSO. 1% by weight of the emulsifier Uniperol® EL (wetting agent having emulsifying and dispersing action based on ethoxylated alkylphenols) was added to this solution, and the solution was diluted with water to the desired concentration.
Use Example—Activity Against Sheath Blight on Rice Caused by Corticium sasakii
Pots of rice plants of the cultivar “Tai-Nong 67” were sprayed to runoff point with an aqueous suspension having the concentration of active compound stated below. The next day, oat grains infected with Corticium sasakii were placed into the pots (in each case 5 grains per pot). The plants were then placed in a chamber at 26° C. and maximum atmospheric humidity. After 11 days, the sheath blight on the untreated but infected control plants had developed to such an extent that the infection could be determined visually in %.
Evaluation is carried out by determining the infected leaf areas in percent. These percentages were converted into efficacies.
The efficacy (E) is calculated as follows using Abbot's formula:
E=(1−α/β)·100 • α corresponds to the fungicidal infection of the treated plants in % and • β corresponds to the fungicidal infection of the untreated (control) plants in %
An efficacy of 0 means that the infection level of the treated plants corresponds to that of the untreated control plants; an efficacy of 100 means that the treated plants are not infected.
The expected efficacies of the mixtures of active compounds are determined using Colby's formula [R. S. Colby, Weeds 15, 20-22 (1967)] and compared with the observed efficacies.
E=x+y−x·y/100 • E expected efficacy, expressed in % of the untreated control, when using the mixture of the active compounds A and B at the concentrations a and b • x efficacy, expressed in % of the untreated control, when using active compound A at the concentration a • y efficacy, expressed in % of the untreated control, when using active compound B at the concentration b

Row | Compound | Efficacy in % of the untreated control (4 ppm in the spray liquor) [%] | Efficacy in % of the untreated control (1 ppm in the spray liquor) [%] | Efficacy in % of the untreated control (16 ppm in the spray liquor) [%]
1 | CC1CCN(c2c(-c3c(F)cccc3Cl)c(Cl)nc3ncnn23)CC1 [A] | 12 | – | –
2 | CC(Nc1c(-c2c(F)cc(F)cc2F)c(Cl)nc2ncnn12)C(F)(F)F (stereo not drawn) [B] | 56 | – | –
3 | CC1CCN(c2c(-c3c(F)cc(F)cc3F)c(Cl)nc3ncnn23)CC1 [I, 5-chloro-7-(4-methylpiperidin-1-yl)-6-(2,4,6-trifluorophenyl)-[1,2,4]tri-azolo[1,5-a]pyrimidine] | 34 | – | –
4 | N#Cc1c(Cl)c(Cl)c(Cl)c(C#N)c1Cl [II, 2,4,5,6-tetrachloroisophthalonitrile] | 0 | 0 | 0
